One block for each compound: values may come before it. Active and inactive are the calls of the source. No cut-off for these calls is given here.
Columns and labels:
[1] = biological target: T1, Lysophosphatidic acid receptor 2 (Homo sapiens, UniProt Q9HBW0); assay: Antagonist activity at LPA2 receptor (unknown origin) expressed in cells assessed as maximal blockade of LPA-induced calcium mobilization at 10 uM measured after 120 secs by Fluo-4 NW dye based assay relative to control; type: functional, cell-based; settings: filed as antagonist, time 120.0 sec
T1 sequence (Q9HBW0 whole entry): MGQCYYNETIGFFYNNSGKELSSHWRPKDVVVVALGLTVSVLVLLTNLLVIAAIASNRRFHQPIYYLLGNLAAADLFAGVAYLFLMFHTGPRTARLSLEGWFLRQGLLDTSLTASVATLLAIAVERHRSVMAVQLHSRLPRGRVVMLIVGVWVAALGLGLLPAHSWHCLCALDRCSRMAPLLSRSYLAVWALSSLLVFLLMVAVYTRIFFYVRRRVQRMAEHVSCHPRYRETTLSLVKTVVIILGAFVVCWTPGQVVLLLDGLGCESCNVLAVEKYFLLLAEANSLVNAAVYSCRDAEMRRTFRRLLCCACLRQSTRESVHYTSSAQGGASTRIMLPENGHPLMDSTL

[2] = biological target: T2, Lysophosphatidic acid receptor 3 (Homo sapiens) (UniProt Q9UBY5); assay: Antagonist activity at LPA3 receptor (unknown origin) expressed in cells assessed as maximal blockade of LPA-induced calcium mobilization at 10 uM measured after 120 secs by Fluo-4 NW dye based assay relative to control; type: functional, cell-based; settings: filed as antagonist, time 120.0 sec
T2 sequence (whole entry): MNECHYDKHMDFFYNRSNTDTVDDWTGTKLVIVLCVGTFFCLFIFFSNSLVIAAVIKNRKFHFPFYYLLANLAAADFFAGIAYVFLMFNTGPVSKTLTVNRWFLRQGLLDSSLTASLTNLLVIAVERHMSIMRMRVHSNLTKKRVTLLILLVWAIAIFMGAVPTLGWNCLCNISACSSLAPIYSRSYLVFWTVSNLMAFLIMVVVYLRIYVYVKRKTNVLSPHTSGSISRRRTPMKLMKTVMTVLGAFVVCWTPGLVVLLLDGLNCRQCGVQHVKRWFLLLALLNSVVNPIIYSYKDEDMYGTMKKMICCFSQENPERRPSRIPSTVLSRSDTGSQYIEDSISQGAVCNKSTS

[3] = biological target: T1, Lysophosphatidic acid receptor 2; assay: Antagonist activity at LPA2 receptor (unknown origin) expressed in cells assessed as blockade of LPA-induced calcium mobilization measured after 120 secs by Fluo-4 NW dye based assay; type: functional, cell-based
[4] = Metabolic stability in human liver microsomes assessed as half life by HPLC-MS analysis; type: ADME, Microsome
Mus musculus [5] = assay: Protection of spinal cord injury-induced locomotor defect in C57B1/6J mouse model assessed as increase in locomotor activity at 25 mg/kg, ip treated for 10 consecutive days; type: functional, organism-based
[6] = Plasma concentration in C57B1/6J mouse at 25 mg/kg, ip measured after 0.5 hrs by HPLC-MS analysis
Mus musculus [7] = assay: Protection of spinal cord injury-induced locomotor defect in C57B1/6J mouse model assessed as increase in motor skills at 25 mg/kg, ip treated 35 days after post injury for 10 consecutive days; type: functional, organism-based; settings: time 35.0 day
Mus musculus [8] = assay: Protection of spinal cord injury-induced locomotor defect in C57B1/6J mouse model assessed as frequent stepping at 25 mg/kg, ip treated 35 days after post injury for 10 consecutive days; type: functional, organism-based; settings: time 35.0 day

Emax [1]: 58%
Emax [2]: 71%
Structure (SMILES): Cc1noc(-c2ccc(OCC(=O)O)cc2O)c1Oc1ccc(Cl)cc1Cl

Structure (SMILES): Cc1[nH]nc(-c2ccc(OCc3nnn[nH]3)cc2O)c1Oc1ccc(F)cc1F
IC50 [3]: 31 µM

t1/2 [4]: 1.02 h
Structure (SMILES): Cc1[nH]nc(-c2ccc(OCC(=O)O)cc2O)c1Oc1ccc(Cl)cc1Cl

Structure (SMILES): Cc1[nH]nc(-c2ccc(OCc3nnn[nH]3)cc2O)c1Oc1ccc(Cl)cc1Cl
Activity (Mus musculus [5]): Active
concentration at 0.5 h [6]: 103000 ng/g
Activity (Mus musculus [7]): Active
Activity (Mus musculus [8]): Active
